This assay has as its system Rhopalosiphum padi. In words: Antifeedant activity against third-instar larvae of Rhopalosiphum padi assessed as repellency index after 24 hr by feeding choice assay. Also noted: concentration or dose not given beside the values. The class given is functional.
`O=C1COc2ccccc2N1O`: the Activity stood at 26%.
With `COc1ccc2c(c1)OC(O)C(=O)N2O` (configuration not stated), the Activity is 74%.
Turning to `COc1ccc2c(c1)OCC(=O)N2O`, the Activity came out at 52%.
As for `COc1ccc2c(c1)OC(OC)C(=O)N2O` (configuration not stated), the Activity was found to be 33.3%.
In the case of `O=C(O)c1ccc2c(c1)OCC(=O)N2O`, the Activity came to 2.5%.
Turning to `COC1Oc2ccccc2N(O)C1=O` (configuration not stated), the Activity was 0%.
Under `COc1ccc2c(c1)OCC(=O)N2` stands 18%.
Regarding `COc1ccc2c(c1)OC(O)C(=O)N2` (configuration not stated), the Activity was 35%.
As to `O=C1Nc2ccccc2OC1O` (configuration not stated), the Activity was 38%.
`O=C1COc2ccccc2N1`: the Activity amounted to 17%.
For `O=C1C(O)Oc2ccccc2N1O` (configuration not stated), the Activity amounted to 92.3%.
Regarding `COC(=O)c1ccc2c(c1)OCC(=O)N2O` [7-MeOCO-D-DIBOA], the Activity was determined as 32%.

Source of the values: ChEMBL document CHEMBL3044999, “Chemical basis for the antifeedant activity of natural hydroxamic acids and related compounds” (2004).
